Measured values published in US11109593B2, “Isoxazolin-5-one derivative and herbicide containing same as active ingredient” (HOKKO CHEMICAL INDUSTRY CO., LTD., priority 2017, dated 2021).

Legend:
Type in all cases: in vivo
Echinochloa crus-galli [1] = assay: Test Example 2: herbicidal effect test by treatment during growing period in paddy rice cultivation (seven days after seeding); conditions: 120 g/10a active ingredient, assessed 14 days after treatment, dry weight vs untreated area
Procedure, shortened: (§1)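 Herbicidal rate (%) = {1 − treated/untreated mean plant dry weight} × 100, assessed in duplicate 14 days post-treatment. Emulsion formulations were diluted in water and dropped onto flooded (about 3 cm) paddy pots 7 days after seeding, giving 120 g a.i. per 10 ares. Plants were grown in a glass greenhouse.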

Scirpus juncoides [2] = assay: as above; conditions: 120 g/10a active ingredient, assessed 14 days after treatment, dry weight vs untreated area
Procedure, shortened: as §1

[3] = system: broad leaf weeds (Lindernia pyxidaria and Monochoria vaginalis); assay: as above; conditions: 120 g/10a active ingredient, assessed 14 days after treatment, dry weight vs untreated area
Procedure, shortened: as §1

Chenopodium album [4] = assay: Test Example 3: herbicidal effect test by treatment of dry field farming soil (one day after seeding); conditions: 120 g/10a active ingredient, evaluated 14 days after treatment
Procedure, shortened: (§2)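 Herbicidal rate (%) equals 1 minus treated/untreated mean plant dry weight, times 100, taken 14 days after treatment in duplicate pots. Emulsion diluted in water was applied at 100 L per 10 ares (120 g a.i. per 10 ares) one day after sowing 20 seeds per species into the top 1 cm of alluvial soil.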

Amaranthus viridis [5] = assay: as above; conditions: 120 g/10a active ingredient, evaluated 14 days after treatment
Procedure, shortened: as §2

Echinochloa crus-galli [6] = assay: as above; conditions: 120 g/10a active ingredient, evaluated 14 days after treatment
Procedure, shortened: as §2

southern crabgrass [7] = assay: as above; conditions: 120 g/10a active ingredient, evaluated 14 days after treatment
Procedure, shortened: as §2

Chenopodium album [8] = assay: Test Example 4: herbicidal effect test by treatment of leave and stem in dry field farming (seven days after seeding); conditions: 120 g/10a active ingredient; emulsion sprayed seven days after seeding; evaluated 14 days after treatment
Procedure, shortened: (§3)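 Twenty seeds per species were mixed into the top 1 cm of alluvial soil in 36 cm^2 pots; emulsions were sprayed seven days after seeding at 100 L per 10 ares (120 g active ingredient per 10 ares). Herbicidal rate (%) = {1 − treated/untreated mean dry weight} × 100, 14 days after treatment, duplicate.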

Amaranthus viridis [9] = assay: as above; conditions: 120 g/10a active ingredient; emulsion sprayed seven days after seeding; evaluated 14 days after treatment
Procedure, shortened: as §3

Echinochloa crus-galli [10] = assay: as above; conditions: 120 g/10a active ingredient; emulsion sprayed seven days after seeding; evaluated 14 days after treatment
Procedure, shortened: as §3

southern crabgrass [11] = assay: as above; conditions: 120 g/10a active ingredient; emulsion sprayed seven days after seeding; evaluated 14 days after treatment
Procedure, shortened: as §3

Echinochloa crus-galli [12] = assay: Test Example 1: herbicidal effect test by treatment of rice paddy soil (immediately after seeding); conditions: 120 g/10a active ingredient, dry weight vs untreated area, 14 days after treatment
Procedure, shortened: (§4)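 Paddy soil in pots with compound fertilizer, puddled; 30 seeds per species sown at 0–1 cm, flooded ~3 cm, greenhouse. Water-diluted emulsions dropped onto water immediately after seeding at 120 g active ingredient per 10 ares, duplicate. Herbicidal rate (%) from plant dry weight versus untreated, 14 days after treatment.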

Scirpus juncoides [13] = assay: as above; conditions: 120 g/10a active ingredient, dry weight vs untreated area, 14 days after treatment
Procedure, shortened: as §4

[14] = system: broad leaf weeds (Lindernia pyxidaria and Monochoria vaginalis); assay: as above; conditions: 120 g/10a active ingredient, dry weight vs untreated area, 14 days after treatment
Procedure, shortened: as §4

| Compound | Herbicidal rate (%) Echinochloa crus-galli (Echinochloa crus-galli [1]) [%] | Herbicidal rate (%) Scirpus juncoides (Scirpus juncoides [2]) [%] | Herbicidal rate (%) Lindernia pyxidaria [3] [%] | Herbicidal rate (%) Monochoria vaginalis [3] [%] | herbicidal rate, Chenopodium album (Chenopodium album [4]) [%] | herbicidal rate, Amaranthus viridis (Amaranthus viridis [5]) [%] | herbicidal rate, Echinochloa crus-galli (Echinochloa crus-galli [6]) [%] | herbicidal rate, southern crabgrass (southern crabgrass [7]) [%] | herbicidal effect (herbicidal rate), Chenopodium album (Chenopodium album [8]) [%] | herbicidal effect (herbicidal rate), Amaranthus viridis (Amaranthus viridis [9]) [%] | herbicidal effect (herbicidal rate), Echinochloa crus-galli (Echinochloa crus-galli [10]) [%] | herbicidal effect (herbicidal rate), southern crabgrass (southern crabgrass [11]) [%] | Herbicidal rate (%) Echinochloa crus-galli (Echinochloa crus-galli [12]) [%] | Herbicidal rate (%) Scirpus juncoides (Scirpus juncoides [13]) [%] | Herbicidal rate (%) Lindernia pyxidaria [14] [%] | Herbicidal rate (%) Monochoria vaginalis [14] [%] |
| --- | --- | --- | --- | --- | --- | --- | --- | --- | --- | --- | --- | --- | --- | --- | --- | --- |
| COC(=O)N(c1ccccc1Cc1c(C)n(CC(C)C)oc1=O)S(=O)(=O)C(F)(F)F [Compound 1-580] | 90 | 90 | 90 | 90 | 90 | 90 | 90 | 90 | 40 | 40 | 90 | 90 | 90 | 90 | 90 | 90 |
| CCCCC(C)n1oc(=O)c(Cc2ccccc2NS(=O)(=O)C(F)(F)F)c1C (centres unmarked) [Compound 1-120] | 90 | 90 | 80 | 80 | 50 | 50 | 90 | 90 | 50 | 60 | 90 | 80 | 100 | 100 | 100 | 100 |
| Cc1c(Cc2ccccc2N(S(C)(=O)=O)S(=O)(=O)C(F)(F)F)c(=O)on1CC(C)C [Compound 1-892] | 90 | 90 | 80 | 80 | 80 | 90 | 90 | 90 | 40 | 40 | 50 | 40 | 100 | 90 | 90 | 90 |
| CCCCC(c1ccccc1)n1oc(=O)c(Cc2ccccc2NS(=O)(=O)C(F)(F)F)c1C (centres unmarked) [Compound 1-214] | 90 | 80 | 70 | 80 | 90 | 90 | 80 | 70 | 50 | 40 | 60 | 50 | 100 | 90 | 100 | 90 |
| CCC(C)n1oc(=O)c(Cc2ccccc2N(C(=O)OCCOC)S(=O)(=O)C(F)(F)F)c1C (centres unmarked) [Compound 1-731] | 90 | 90 | 90 | 90 | 90 | 90 | 90 | 90 | 40 | 40 | 90 | 90 | 90 | 90 | 90 | 90 |
| CCC(=O)N(c1ccccc1Cc1c(C)n(C(C)CC)oc1=O)S(=O)(=O)C(F)(F)F (centres unmarked) [Compound 1-316] | 90 | 90 | 90 | 90 | 90 | 90 | 90 | 90 | 40 | 40 | 90 | 90 | 90 | 90 | 90 | 90 |
| COCC(C)n1oc(=O)c(Cc2ccccc2N(C(=O)OCC(C)C)S(=O)(=O)C(F)(F)F)c1C (centres unmarked) [Compound 1-675] | 90 | 90 | 90 | 90 | 90 | 90 | 90 | 90 | 40 | 40 | 90 | 90 | 90 | 90 | 90 | 90 |
| COCC(C)n1oc(=O)c(Cc2ccccc2N(C(=O)C(C)C)S(=O)(=O)C(F)(F)F)c1C (centres unmarked) [Compound 1-335] | 90 | 90 | 90 | 90 | 90 | 90 | 90 | 90 | 40 | 40 | 90 | 90 | 90 | 90 | 90 | 90 |
